Measured values as given in BindingDB's records for doi:10.1016/j.ejmech.2020.112373 (Newlink Genetics, 2020).

How the values were obtained:
[1] = molecular target: Solute carrier family 22 member 1, OCT1 (Homo sapiens) (UniProt O15245); assay: Inhibition of OCT1 (unknown origin) expressed in HEK293 cells
[2] = molecular target: Solute carrier family 22 member 2, OCT2 (Homo sapiens) (UniProt O15244); assay: Inhibition of OCT2 (unknown origin) expressed in HEK293 cells
Chain of Solute carrier family 22 member 2, OCT2 (Homo sapiens) (O15244 whole entry, looked up): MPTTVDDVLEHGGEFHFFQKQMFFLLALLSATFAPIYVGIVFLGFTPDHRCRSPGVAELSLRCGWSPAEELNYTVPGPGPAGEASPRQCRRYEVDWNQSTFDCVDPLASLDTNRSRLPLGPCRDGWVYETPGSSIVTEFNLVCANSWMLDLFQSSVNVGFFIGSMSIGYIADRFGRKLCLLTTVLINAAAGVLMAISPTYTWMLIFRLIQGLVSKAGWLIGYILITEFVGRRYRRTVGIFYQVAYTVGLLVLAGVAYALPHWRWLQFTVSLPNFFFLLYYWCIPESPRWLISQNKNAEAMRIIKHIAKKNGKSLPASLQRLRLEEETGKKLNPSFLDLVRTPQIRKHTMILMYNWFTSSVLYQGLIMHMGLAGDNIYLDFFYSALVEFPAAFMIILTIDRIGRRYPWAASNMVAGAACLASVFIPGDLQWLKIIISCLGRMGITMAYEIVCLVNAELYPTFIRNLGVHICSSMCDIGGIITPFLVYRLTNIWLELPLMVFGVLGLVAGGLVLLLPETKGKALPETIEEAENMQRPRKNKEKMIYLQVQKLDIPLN

Chain of Solute carrier family 22 member 1, OCT1 (Homo sapiens) (O15245 whole entry, looked up): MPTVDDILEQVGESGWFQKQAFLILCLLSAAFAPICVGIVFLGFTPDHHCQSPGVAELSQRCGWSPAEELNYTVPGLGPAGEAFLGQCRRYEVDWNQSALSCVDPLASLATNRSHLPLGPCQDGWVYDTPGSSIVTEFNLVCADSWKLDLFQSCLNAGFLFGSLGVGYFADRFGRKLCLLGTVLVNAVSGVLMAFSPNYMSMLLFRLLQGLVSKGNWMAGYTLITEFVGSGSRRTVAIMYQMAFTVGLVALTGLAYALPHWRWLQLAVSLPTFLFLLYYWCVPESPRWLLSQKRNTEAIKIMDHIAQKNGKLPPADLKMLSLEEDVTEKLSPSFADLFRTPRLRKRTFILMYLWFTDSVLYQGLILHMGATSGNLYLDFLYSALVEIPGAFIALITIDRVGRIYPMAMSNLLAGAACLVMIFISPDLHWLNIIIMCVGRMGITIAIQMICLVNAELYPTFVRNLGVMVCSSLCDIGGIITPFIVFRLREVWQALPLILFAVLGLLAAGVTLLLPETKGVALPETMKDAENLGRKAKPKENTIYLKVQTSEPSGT

IC50 [1]: > 50 µM
IC50 [2]: > 50 µM
Compound: CCOC(=O)[C@@H](Cc1cn(C)c2ccccc12)NC(=O)[C@@H](N)CC(C)C
